Experimental data as given in the NIST ThermoML archive (doi:10.1016/j.jct.2008.02.001).

Assay: molar heat capacity at constant pressure
Conditions: 101.33 kPa, Crystal, PPMS-Quantum Design

[O-][Si]([O-])([O-])[O-].[Th+4] [thorium silicate]
Conditions	molar heat capacity at constant pressure [J/K/mol]
1.885 K	0.001439
1.946 K	0.001553
2.013 K	0.001656
2.084 K	0.0018
2.158 K	0.001932
2.234 K	0.002074
2.319 K	0.002253
2.399 K	0.002416
2.484 K	0.002584
2.572 K	0.002792
2.66 K	0.003006
2.749 K	0.003244
2.842 K	0.0035
2.936 K	0.003794
3.038 K	0.004121
3.136 K	0.004482
3.243 K	0.004896
3.353 K	0.005336
3.463 K	0.005793
3.573 K	0.006259
3.69 K	0.00688
3.812 K	0.00739
3.935 K	0.007954
4.063 K	0.008647
4.198 K	0.009528
4.338 K	0.01046
4.483 K	0.01148
4.637 K	0.0127
4.798 K	0.01391
4.968 K	0.01533
5 K	0.01646
5.151 K	0.01714
5.343 K	0.01921
5.54 K	0.02152
5.744 K	0.02438
5.956 K	0.02725
6.175 K	0.03065
6.401 K	0.03406
6.631 K	0.03824
6.869 K	0.04281
7.113 K	0.04768
7.362 K	0.05303
7.62 K	0.05923
7.885 K	0.06632
8.158 K	0.07389
8.441 K	0.08256
8.734 K	0.09321
9.036 K	0.1048
9.352 K	0.1182
9.685 K	0.1338
10 K	0.1498
10.02 K	0.1509
10.37 K	0.1707
10.73 K	0.1934
11.1 K	0.2188
11.48 K	0.2483
11.88 K	0.2819
12.29 K	0.32
12.72 K	0.3633
13.16 K	0.4129
13.61 K	0.4682
14.09 K	0.5314
14.58 K	0.603
15.08 K	0.6838
15.61 K	0.7739
16.14 K	0.8747
16.71 K	0.9903
17.29 K	1.117
17.89 K	1.255
18.52 K	1.411
19.15 K	1.576
19.81 K	1.761
20 K	1.81
20.51 K	1.965
21.22 K	2.185
21.97 K	2.428
22.7 K	2.683
23.5 K	2.973
24.27 K	3.257
25.16 K	3.599
25.98 K	3.941
